What was measured:
[1] = Acute toxicity in mice (i.p., Litchfield and Wilcoxon); type: in vivo, albino I.C.R. Swiss mice; details: mouse, in vivo, ip, albino I.C.R. Swiss mice, both sexes
Procedure: (§1) The acute toxicity studies were carried out in albino I.C.R. Swiss mice weighing 30 ± 2 g, of both sexes. The products were administered intraperitoneally (i.p). The acute toxicity was calculated according to the method of Litchfield and Wilcoxon.

[2] = tested on: acetic acid-induced writhing; test: Analgesia, acetic acid-induced writhing technique in mice; type: in vivo, albino I.C.R. Swiss mice; details: for No. of writhes (x ± M.S.E.): Table B-I, control 112.1 ± 4.2; for No. of writhes (x ± M.S.E.) / Number of writhes (x ± M.S.E.): 30 min before acetic acid, counted during 20 min; for Number of writhes (x ± M.S.E.): Table B-II, control 99.6 ± 5.6; for analgesic activity: mice, i.p., compared with dextropropoxyphene
Procedure: The analgesic action was investigated in albino I.C.R. Swiss mice, using the acetic acid-induced writhing technique. Groups each of 10 mice were assembled.
The analgesics were injected intraperitoneally (i.p), and after 30 minutes 0.25 ml of a 1% solution of acetic acid was injected i.p. A control group received acetic acid only. The number of writhes made by each mouse was counted during the 20 minutes following the administration of acetic acid.

albino I.C.R. Swiss mice = test: Acute toxicity in mice (i.p., Litchfield and Wilcoxon); type: in vivo; details: mice
Procedure: as §1

[3] = dextropropoxyphene, 25 mg/kg i.p.

SMILES | LD50 [1] [mg/kg] | No. of writhes (x ± M.S.E.) [2, 3] [writhes] | Number of writhes (x ± M.S.E.) [2, 3] [writhes] | Acute toxicity compared with dextropropoxyphene (albino I.C.R. Swiss mice) | No. of writhes (x ± M.S.E.) ([2]; Product I, 20 mg/kg i.p.) [writhes] | analgesic activity [2] | Number of writhes (x ± M.S.E.) ([2]; Product II, 40 mg/kg i.p.) [writhes]
CCC(=O)O[C@](Cc1ccccc1)(c1ccccc1)[C@H](C)CN(C)C [Dextropropoxyphene, reference compound] | 140 | 22.8 ± 4.74 | 50.2 ± 4.4 |  |  |  | 
COc1cc(CC2C(C)=C(C)CCN2C)cc(OC)c1OC (centres unmarked) [Product I, 1,3,4-trimethyl-2-(3,4,5-trimethoxybenzyl)-1,2,5,6-tetrahydropyridine] | 154 |  |  | less toxic than dextropropoxyphene | 74.5 ± 4.84 | has analgesic activity but less than that of dextropropoxyphene | 
COc1cc(C(O)c2nccc(C)c2C)cc(OC)c1OC (centres unmarked) [Product II, 3,4,5-trimethoxyphenyl-(3,4-dimethyl-2-pyridyl)carbinol] | 292 |  |  | less toxic than dextropropoxyphene |  | high analgesic activity | 29 ± 7.3

Reference: patent publication US4000283A, “Compound 3,4,5-trimethoxyphenyl-(3,4-dimethyl-2-pyridyl)-carbonyl” (priority 1974, dated 1976)
